# Assay results taken from patent US20240239759A1, “ISOXAZOLINE COMPOSITIONS AND THEIR USE AS ANTIPARASITICS” (Intervet Inc., priority 2007, published 2024).
# “And” between values parts separate entries of the source, which are not always exact repeats. Equal entries are not always repeated.
# What was measured:
# [1] = system: cat fleas (Ctenocephalides felis); test: Adult fleas fed on artificial membranes with spiked blood (Example 1); conditions: 48 hr continuous feeding
# Method: Adult fleas (20-30) were fed on artificial membranes with blood spiked with Compound 10-1, Compound 11-1, or a positive control (fipronil) at a concentration of 100, 10, or 1 ppm. Flea efficacy was assessed after 48 hr of continuous feeding by comparing the number of killed and damaged fleas with the number of fed fleas. Flea efficacy was 100% for Compound 10-1, Compound 11-1, and fipronil at 100, 10, and 1 ppm.
# [2] = Side effects in Guinea pigs, hard tick studies (Example 2D); type: in vivo; conditions: Guinea pigs; either study (topical dip, oral, subcutaneous)
# Method: (§1) Guinea pigs were divided into groups of three. Each group was subjected to one of the following treatments with either Compound 11-1, fipronil (positive control), or neither (negative control):
# (§2) • 1. 100 ppm body weight topical administration by animal dip • 2. 10 mg/kg body weight oral administration • 3. 10 mg/kg body weight subcutaneous administration • 4. No treatment (negative control)
# (§3) • 1. 25 ppm body weight topical administration by animal dip • 2. 2.5 mg/kg body weight oral administration • 3. 2.5 mg/kg body weight subcutaneous administration • 4. No treatment (negative control) One day before the treatment, all the Guinea pigs were infested with 100 vital juvenile (“nymph”) hard ticks (brown dog ticks, R. sanguineus). Engorged, detached nymphs were counted (eN) from Day 4 to Day 8 to calculate the efficacy of the treatments according to following formula: […]
# In the first study, 32 engorged R. sanguineus nymphs were collected from animals of the untreated negative control group. And in the second study, 75 engorged R. sanguineus nymphs were collected from animals of the untreated negative control group. […] Thus, the inhibition of engorged nymphs for both Compound 11-1 and fipronil was 100%.
# [3] = system: brown dog ticks, R. sanguineus (nymphs); test: Efficacy against hard (Ixodide) ticks on Guinea pigs (Example 2D); type: in vivo, Rhipicephalus sanguineus; conditions: all treated groups of Study 1 (100 ppm dip, 10 mg/kg oral, 10 mg/kg subcutaneous) and Study 2 (25 ppm dip, 2.5 mg/kg oral, 2.5 mg/kg subcutaneous), Day 4 to Day 8
# Method: as §1, §2, §3
# In addition, collected ticks were assessed for molting into the next stage.
# [4] = system: juvenile soft ticks (O. moubata); test: Efficacy against soft (Argaside) ticks on Guinea pigs (Example 2C); type: in vivo, Ornithodoros moubata; conditions: Guinea pig
# Method: (§4) Six Guinea pigs were treated orally, subcutaneously, or intraperitoneally with 10 mg/kg bodyweight of Compound 11-1 or fipronil (positive control). The Guinea pigs were locally co-infested with juvenile soft ticks (O. moubata) and bed bugs (C. lectularius) once before the treatment, and at different time points after treatment between days 2 and 50. Ten engorged ticks/bed bugs were collected to assess the percentage of killed individuals per species 24 hr after each infestation.
# (§5) For Guinea pigs treated with Compound 11-1, the ticks and bed bugs died within 1 to 5 hr following infestation up to Day 29, and within 8 to 24 hr after day 29. For Guinea pigs treated with fipronil, ticks and bed bugs died within 1 to 7 hr after infestation up to Day 29, and within 8 to 24 hr after day 29.
# [5] = Side effects in mice, flea study (Example 2A); type: in vivo; conditions: topical 100 ppm, oral or subcutaneous 10 mg/kg
# Method: (§6) Mice were divided into groups of three, and treated topically with 100 ppm body weight, orally with 10 mg/kg bodyweight, or subcutaneously with 10 mg/kg bodyweight of Compound 11-1, fipronil (positive control), or nothing (negative control). These mice were sedated and infested with adult fleas (C. felis) 1, 3, 6, and 24 hr after treatment. Fleas were recovered from the mice after approximately 30 minutes of feeding. The assessment of flea inhibition (% of dead and damaged fleas) was conducted 1 and 24 hr after each infestation.
# [6] = system: adult fleas (C. felis); test: Efficacy against fleas on mice (Example 2A); type: in vivo, Ctenocephalides felis
# Method: as §6
# [7] = system: bed bugs (C. lectularius); test: Efficacy against bed bugs on Guinea pigs (Example 2C); type: in vivo, Cimex lectularius; conditions: Guinea pig
# Method: as §4, §5
# [8] = Side effects in Guinea pigs, soft tick and bed bug study (Example 2C); type: in vivo
# Method: as §4
# [9] = system: M. musculinus; test: Efficacy against mites on mice (Example 2B); type: in vivo, Myocoptes musculinus; set-up: key: “+”=low infestation rate; “++”=medium infestation rate; “+++”=high infestation rate; conditions: repeated 7 days later
# Method: The mice were divided into groups of three, and treated topically with 100 ppm body weight, orally with 10 mg/kg body weight, or subcutaneously with 10 mg/kg body weight of Compound 11-1, fipronil (positive control), or nothing (negative control). This treatment was then repeated 7 days later. The infestation rate per mouse (“+”=low infestation rate, “++”=medium infestation rate, “+++”=high infestation rate) was assessed repeatedly on days 1, 6, 9, 13, and 23. Efficacy was defined as the inhibition of the mite infestation rate on treated mice relative to the negative control group.
smiles,measurement,setting,value
"Cc1cc(C2=NOC(c3cc(Cl)cc(Cl)c3)(C(F)(F)F)C2)ccc1C(=O)NCC(=O)NCC(F)(F)F (racemic) [Compound 11-1, 4-[5-(3,5-dichlorophenyl)-5-trifluoromethyl-4,5-dihydroisoxazol-3-yl]-2-methyl-N-[(2,2,2-trifluoro-ethylcarbamoyl)-methyl]-benzamide]",Flea efficacy,[1]; blood spiked at 1 ppm,100%
same,Flea efficacy,[1]; blood spiked at 10 ppm,100%
same,Flea efficacy,[1]; blood spiked at 100 ppm,100%
same,Side effects,[2],No side effects were observed
same,Engorged R. sanguineus nymphs collected,[3],no nymphs were collected
same,Inhibition of engorged nymphs,[3],100%
same,Efficacy against soft ticks (killed 24 hr after infestation),"[4]; intraperitoneal 10 mg/kg, after Day 31",No efficacy was detected after Day 31.
same,Efficacy against soft ticks (killed 24 hr after infestation),"[4]; intraperitoneal 10 mg/kg, up to Day 31",100% efficacy was observed up to Day 31.
same,Efficacy against soft ticks (killed 24 hr after infestation),"[4]; oral 10 mg/kg, up to Day 31",100% efficacy was observed up to Day 31.
same,Efficacy against soft ticks (killed 24 hr after infestation),"[4]; subcutaneous 10 mg/kg, after Day 33",No efficacy was detected after Day 33.
same,Efficacy against soft ticks (killed 24 hr after infestation),"[4]; subcutaneous 10 mg/kg, up to Day 31",100% efficacy was observed up to Day 31.
same,Efficacy against soft ticks (killed 24 hr after infestation),"[4]; subcutaneous 10 mg/kg, up to Day 33",70% efficacy was observed up to Day 33.
same,Side effects,[5],No side effects were observed
same,Flea inhibition (% of dead and damaged fleas),"[6]; oral 10 mg/kg, infested 1 hr after treatment, assessed 1 hr after infestation",43.3%
same,Flea inhibition (% of dead and damaged fleas),"[6]; oral 10 mg/kg, infested 1 hr after treatment, assessed 24 hr after infestation",67.7%
same,Flea inhibition (% of dead and damaged fleas),"[6]; oral 10 mg/kg, infested 3 hr after treatment, assessed 1 hr after infestation",44.3%
same,Flea inhibition (% of dead and damaged fleas),"[6]; oral 10 mg/kg, infested 3 hr after treatment, assessed 24 hr after infestation",48.7%
same,Flea inhibition (% of dead and damaged fleas),"[6]; oral 10 mg/kg, infested 6 hr after treatment, assessed 1 hr after infestation",17.7%
same,Flea inhibition (% of dead and damaged fleas),"[6]; oral 10 mg/kg, infested 6 hr after treatment, assessed 24 hr after infestation",26.7%
same,Flea inhibition (% of dead and damaged fleas),"[6]; oral 10 mg/kg, infested 24 hr after treatment, assessed 1 hr after infestation",37.7%
same,Flea inhibition (% of dead and damaged fleas),"[6]; oral 10 mg/kg, infested 24 hr after treatment, assessed 24 hr after infestation",82.0%
same,Flea inhibition (% of dead and damaged fleas),"[6]; subcutaneous 10 mg/kg, infested 1 hr after treatment, assessed 1 hr after infestation",7.7%
same,Flea inhibition (% of dead and damaged fleas),"[6]; subcutaneous 10 mg/kg, infested 1 hr after treatment, assessed 24 hr after infestation",40.0%
same,Flea inhibition (% of dead and damaged fleas),"[6]; subcutaneous 10 mg/kg, infested 3 hr after treatment, assessed 1 hr after infestation",31.0%
same,Flea inhibition (% of dead and damaged fleas),"[6]; subcutaneous 10 mg/kg, infested 3 hr after treatment, assessed 24 hr after infestation",42.3%
same,Flea inhibition (% of dead and damaged fleas),"[6]; subcutaneous 10 mg/kg, infested 6 hr after treatment, assessed 1 hr after infestation",21.0%
same,Flea inhibition (% of dead and damaged fleas),"[6]; subcutaneous 10 mg/kg, infested 6 hr after treatment, assessed 24 hr after infestation",36.7%
same,Flea inhibition (% of dead and damaged fleas),"[6]; subcutaneous 10 mg/kg, infested 24 hr after treatment, assessed 1 hr after infestation",100%
same,Flea inhibition (% of dead and damaged fleas),"[6]; subcutaneous 10 mg/kg, infested 24 hr after treatment, assessed 24 hr after infestation",100%
same,Flea inhibition (% of dead and damaged fleas),"[6]; topical 100 ppm body weight, infested 1 hr after treatment, assessed 1 hr after infestation",0%
same,Flea inhibition (% of dead and damaged fleas),"[6]; topical 100 ppm body weight, infested 1 hr after treatment, assessed 24 hr after infestation",97.7%
same,Flea inhibition (% of dead and damaged fleas),"[6]; topical 100 ppm body weight, infested 3 hr after treatment, assessed 1 hr after infestation",0%
same,Flea inhibition (% of dead and damaged fleas),"[6]; topical 100 ppm body weight, infested 3 hr after treatment, assessed 24 hr after infestation",99.0%
same,Flea inhibition (% of dead and damaged fleas),"[6]; topical 100 ppm body weight, infested 6 hr after treatment, assessed 1 hr after infestation",0%
same,Flea inhibition (% of dead and damaged fleas),"[6]; topical 100 ppm body weight, infested 6 hr after treatment, assessed 24 hr after infestation",81.0%
same,Flea inhibition (% of dead and damaged fleas),"[6]; topical 100 ppm body weight, infested 24 hr after treatment, assessed 1 hr after infestation",2%
same,Flea inhibition (% of dead and damaged fleas),"[6]; topical 100 ppm body weight, infested 24 hr after treatment, assessed 24 hr after infestation",93.3%
same,Efficacy against bed bugs (killed 24 hr after infestation),"[7]; intraperitoneal 10 mg/kg, after Day 35",35. No efficacy was detected after Day 35.
same,Efficacy against bed bugs (killed 24 hr after infestation),"[7]; intraperitoneal 10 mg/kg, up to Day 33",100% efficacy was observed up to Day 33.
same,Efficacy against bed bugs (killed 24 hr after infestation),"[7]; oral 10 mg/kg, up to Day 31",100% efficacy was observed up to Day 31.
same,Efficacy against bed bugs (killed 24 hr after infestation),"[7]; subcutaneous 10 mg/kg, after Day 42",42. No efficacy was detected after Day 42.
same,Efficacy against bed bugs (killed 24 hr after infestation),"[7]; subcutaneous 10 mg/kg, up to Day 35",100% efficacy was observed up to Day 35.
same,Efficacy against bed bugs (killed 24 hr after infestation),"[7]; subcutaneous 10 mg/kg, up to Day 40",90% efficacy was observed up to Day 40.
same,Death of the orally treated Guinea pig (Animal No. 1) after Day 31,"[8]; Guinea pig, oral 10 mg/kg, without clinical symptoms",not considered to be treatment-related
same,Side effects,"[8]; Guinea pigs, oral, subcutaneous or intraperitoneal 10 mg/kg",No side effects were observed
same,Mite infestation rate per mouse,"[9]; oral 10 mg/kg, Day 1",+ to ++
same,Mite infestation rate per mouse,"[9]; oral 10 mg/kg, Day 6",++
same,Mite infestation rate per mouse,"[9]; oral 10 mg/kg, Day 9, 10 mg/kg",2 mice: none and 1 mouse: +
same,Mite infestation rate per mouse,"[9]; oral 10 mg/kg, Day 13",none
same,Mite infestation rate per mouse,"[9]; oral 10 mg/kg, Day 23",none
same,Mite infestation rate per mouse,"[9]; subcutaneous 10 mg/kg, Day 1",+ to ++
same,Mite infestation rate per mouse,"[9]; subcutaneous 10 mg/kg, Day 6",++
same,Mite infestation rate per mouse,"[9]; subcutaneous 10 mg/kg, Day 9",none
same,Mite infestation rate per mouse,"[9]; subcutaneous 10 mg/kg, Day 13",none
same,Mite infestation rate per mouse,"[9]; subcutaneous 10 mg/kg, Day 23",none
same,Mite infestation rate per mouse,"[9]; topical 100 ppm body weight, Day 1",+
same,Mite infestation rate per mouse,"[9]; topical 100 ppm body weight, Day 6",2 mice: none and 1 mouse: +
same,Mite infestation rate per mouse,"[9]; topical 100 ppm body weight, Day 9",none
same,Mite infestation rate per mouse,"[9]; topical 100 ppm body weight, Day 13",none
same,Mite infestation rate per mouse,"[9]; topical 100 ppm body weight, Day 23",none
